Data taken from the supplement of paper PMC10307832.

Columns and labels:
Experiment in all cases: relative viability (nuclei count vs DMSO), 5 days (fraction); higher = more cells survive
[1] = compound: CC1=CC=C(C=C1)C(=O)CN2C3=C(CCCC3)SC2=N [Pifithrin_alpha] + Cc1nc(NC(=O)N2CCC[C@H]2C(N)=O)sc1-c1ccnc(C(C)(C)C(F)(F)F)c1 [Alpelisib] (partner 2 µM)
Procedure, shortened: (§1)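 Relative viability is defined as nuclei in treated wells over nuclei in vehicle wells. Duplicate plates were run and medians reported. Lung cancer cell lines in 1536-well plates were dosed by pin tool one day after seeding, with one drug or with a fixed anchor-drug dose plus five library-drug doses (not always all listed) in √10 steps, and nuclei were counted after 5 days.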

[2] = compound: CNC(=O)c1ccccc1Sc1ccc2c(/C=C/c3ccccn3)n[nH]c2c1 [Axitinib] + CC(=O)Nc1cccc(-n2c(=O)n(C3CC3)c(=O)c3c(Nc4ccc(I)cc4F)n(C)c(=O)c(C)c32)c1 [Trametinib] (partner 0.02 µM)
Procedure, shortened: as §1

[3] = compound: CNC(=O)c1ccccc1Sc1ccc2c(/C=C/c3ccccn3)n[nH]c2c1 [Axitinib] + O=C(c1cc(Cc2n[nH]c(=O)c3ccccc23)ccc1F)N1CCN(C(=O)C2CC2)CC1 [Olaparib] (partner 8 µM)
Procedure, shortened: as §1

[4] = compound: Nc1nc(Nc2ccc3c(c2)CC[C@@H](N2CCCC2)CC3)nn1-c1cc2c(nn1)-c1ccccc1CCC2 [Bemcentinib] + CS(=O)(=O)CCNCc1ccc(-c2ccc3ncnc(Nc4ccc(OCc5cccc(F)c5)c(Cl)c4)c3c2)o1 [Lapatinib] (partner 2 µM)
Procedure, shortened: as §1

| Cell Line | relative viability ([1]; first compound 1 µM) | relative viability ([1]; first compound 3.162 µM) | relative viability ([1]; first compound 10 µM) | relative viability ([1]; first compound 31.62 µM) | relative viability ([1]; first compound 100 µM) | relative viability ([2]; first compound 0.005 µM) | relative viability ([2]; first compound 0.05 µM) | relative viability ([2]; first compound 0.1581 µM) | relative viability ([2]; first compound 0.5 µM) | relative viability ([3]; first compound 0.005 µM) | relative viability ([3]; first compound 0.01581 µM) | relative viability ([3]; first compound 0.05 µM) | relative viability ([3]; first compound 0.1581 µM) | relative viability ([3]; first compound 0.5 µM) | relative viability ([4]; first compound 0.04 µM) | relative viability ([4]; first compound 0.1265 µM) | relative viability ([4]; first compound 0.4 µM) | relative viability ([4]; first compound 1.265 µM) | relative viability ([4]; first compound 4 µM) | relative viability ([2]; first compound 0.01581 µM) |
| --- | --- | --- | --- | --- | --- | --- | --- | --- | --- | --- | --- | --- | --- | --- | --- | --- | --- | --- | --- | --- |
| H3255 | 0.587 | 0.739 | 0.692 | 0.403 | 0.593 | 0.573 | 0.551 | 0.486 | 0.558 | 0.615 | 0.565 | 0.566 | 0.572 | 0.639 | 0.222 | 0.352 | 0.229 | 0.237 | 0.191 |  |
| HARA | 0.757 | 0.794 | 0.856 | 0.638 | 0.519 | 0.727 | 0.768 | 0.618 | 0.949 | 1.02 | 0.88 | 0.835 | 0.95 | 0.921 | 0.668 | 0.928 | 0.788 | 0.865 | 0.469 | 0.707 |
| HCC-15 | 0.948 | 0.902 | 0.833 | 0.659 | 0.839 | 0.403 | 0.378 | 0.372 | 0.383 | 0.77 | 0.75 | 0.766 | 0.682 | 0.667 | 0.883 | 0.954 | 0.884 | 0.895 | 0.903 | 0.417 |
| HCC-44 | 0.681 | 0.699 | 0.715 | 0.453 | 0.591 | 1.05 | 1.05 | 1.06 | 1.03 | 0.955 | 0.961 | 0.963 | 0.947 | 1 | 1.06 | 1.07 | 1.14 | 1.1 | 1.06 | 1.1 |
